Here are results for 18 compounds from patent US4226863A, “7-Methoxy cephalosporins” (Sumitomo Chemical Company, Limited, priority 1975, dated 1980).

By MIC is commonly meant the smallest concentration in the dilution series that meets the test's criterion for growth inhibition. Higher therefore signals a need for much substance.

In brackets after ≈: the same amount, converted by molar mass.

Assay type in all cases: cell-based
The subject of assay [1] is Serratia No. 115. As to the kind of experiment: antimicrobial activity, minimum inhibitory concentration, Serratia No. 115. The procedure: (§1) The antimicrobial activities of the compounds prepared in the previous Examples were determined in a usual manner and the minimum inhibitory concentrations (in terms of μg/ml) are set forth in the Table below.
The test system of assay [2] is Pseudomonas aeruginosa IID 5142. As to the kind of experiment: antimicrobial activity, minimum inhibitory concentration, Pseudomonas aeruginosa IID 5142. To be noted: IID5142. Here is the method: as §1
Assay [3] relates to Enterobacter aerogenes No. 101. As to the kind of experiment: antimicrobial activity, minimum inhibitory concentration, Enterobacter aerogenes No. 101. To be noted: Klebsiella aerogenes. Here is the method: as §1
Assay [4] deals with Proteus vulgaris HX 19. As to the kind of experiment: antimicrobial activity, minimum inhibitory concentration, Proteus vulgaris HX 19. To be noted: HX19. The procedure:
as §1

In assay [5] the test system is Escherichia coli NIHJ. As to the kind of experiment: antimicrobial activity, minimum inhibitory concentration, Escherichia coli NIHJ.

With `CO[C@@]1(NC(=O)[C@H](NC(=O)c2cnc3cccnc3c2O)c2ccccc2)C(=O)N2C(C(=O)O)=C(COC(C)=O)CS[C@@H]21` [Example 1, 3-Acetoxymethyl-7α-methoxy-7β-[D-2-(4-hydroxy-1,5-naphthyridine-3-carbonamido)-2-phenylacetamido]-3-cephem-4-carboxylic Acid], the MIC in assay [1] was 50 µg/mL (≈ 82.3 µM); in assay [2], 1.56 µg/mL (≈ 2.57 µM); in assay [3] it was 6.25 µg/mL (≈ 10.3 µM); in assay [4], 0.39 µg/mL (≈ 0.642 µM); in assay [5] it was 3.13 µg/mL (≈ 5.15 µM).
In the same order, the values of `CO[C@@]1(NC(=O)[C@H](NC(=O)c2cnc3cccnc3c2O)c2ccc(O)cc2)C(=O)N2C(C(=O)O)=C(CSc3nnnn3C)CS[C@@H]21` [Example 2, 3-[(1-Methyltetrazol-5-yl)thiomethyl]-7α-methoxy-7β-[D-2-(4-hydroxy-1,5-naphthyridine-3-carbonamido)-2-(p-hydroxyphenyl)acetamido]-3-cephem-4-carboxylic Acid] are 3.13 µg/mL (≈ 4.6 µM), 1.56 µg/mL (≈ 2.3 µM), 3.13 µg/mL (≈ 4.6 µM), 0.2 µg/mL (≈ 0.294 µM) and 0.78 µg/mL (≈ 1.15 µM).
Turning to `CO[C@@]1(NC(=O)[C@H](NC(=O)c2cnc3cccnc3c2O)c2ccc(O)cc2)C(=O)N2C(C(=O)O)=C(CSc3cnn[nH]3)CS[C@@H]21` [Example 3, 3-[(Triazol-5-yl)thiomethyl]-7α-methoxy-7β-[D-2-(4-hydroxy-1,5-naphthyridine-3-carbonamido)-2-(p-hydroxyphenyl)acetamido]-3-cephem-4-carboxylic Acid], the MIC in assay [1] was 25 µg/mL (≈ 37.6 µM); in assay [2] it was 3.13 µg/mL (≈ 4.71 µM); in assay [3], 6.25 µg/mL (≈ 9.4 µM); in assay [4] it was 0.78 µg/mL (≈ 1.17 µM); in assay [5] it was 3.13 µg/mL (≈ 4.71 µM).
Consider `CO[C@@]1(NC(=O)[C@H](NC(=O)c2cnc3cccnc3c2O)c2ccccc2)C(=O)N2C(C(=O)[O-])=C(C[n+]3ccccc3)CS[C@@H]21` [Example 4, 3-Pyridiniummethyl-7α-methoxy-7β-[D-2-(4-hydroxy-1,5-naphthyridine-3-carbonamido)-2-phenylacetamido]-3-cephem-4-carboxylate], for which the MIC is 25 µg/mL (≈ 39.9 µM) in assay [1]; 6.25 µg/mL (≈ 9.97 µM) in assay [2]; 12.5 µg/mL (≈ 19.9 µM) in assay [3]; 0.78 µg/mL (≈ 1.24 µM) in assay [4]; 3.13 µg/mL (≈ 4.99 µM) in assay [5].
Taken in the same sequence, the figures for `CO[C@@]1(NC(=O)[C@H](NC(=O)c2cnc3cccnc3c2O)c2ccc(O)cc2)C(=O)N2C(C(=O)O)=C(COC(N)=O)CS[C@@H]21` [Example 5, 3-Carbamoyloxymethyl-7α-methoxy-7β-[D-2-(4-hydroxy-1,5-naphthyridine-3-carbonamido)-2-(p-hydroxyphenyl)-acetamido]-3-cephem-4-caboxylic Acid] were 50 µg/mL (≈ 80.1 µM), 3.13 µg/mL (≈ 5.01 µM), 6.25 µg/mL (≈ 10 µM), 0.39 µg/mL (≈ 0.624 µM) and 3.13 µg/mL (≈ 5.01 µM).
In the same order, the values of `CO[C@@]1(NC(=O)C(NC(=O)c2cnc3cncnc3c2O)c2ccccc2)C(=O)N2C(C(=O)O)=C(CSc3nnnn3C)CS[C@@H]21` (stereo partly drawn) [Example 7] are 12.5 µg/mL (≈ 18.8 µM), 6.25 µg/mL (≈ 9.4 µM), 6.25 µg/mL (≈ 9.4 µM), 0.78 µg/mL (≈ 1.17 µM) and 6.25 µg/mL (≈ 9.4 µM).
With `CO[C@@]1(NC(=O)C(NC(=O)c2cnccc2O)c2ccccc2)C(=O)N2C(C(=O)O)=C(COC(C)=O)CS[C@@H]21` (stereo partly drawn) [Example 8], the MIC in assay [1] amounted to 100 µg/mL (≈ 180 µM); in assay [2] it was 6.25 µg/mL (≈ 11.2 µM); in assay [3], 25 µg/mL (≈ 44.9 µM); in assay [4], 0.39 µg/mL (≈ 0.701 µM); in assay [5], 12.5 µg/mL (≈ 22.5 µM).
Taken in the same sequence, the figures for `CO[C@@]1(NC(=O)C(NC(=O)c2cnccc2O)c2ccc(O)cc2)C(=O)N2C(C(=O)O)=C(CSc3nnnn3C)CS[C@@H]21` (stereo partly drawn) [Example 9] were 50 µg/mL (≈ 79.5 µM), 6.25 µg/mL (≈ 9.94 µM), 12.5 µg/mL (≈ 19.9 µM), 0.39 µg/mL (≈ 0.62 µM) and 12.5 µg/mL (≈ 19.9 µM).
In the same order, the values of `CO[C@@]1(NC(=O)C(NC(=O)c2cncnc2O)c2ccc(O)cc2)C(=O)N2C(C(=O)O)=C(CSc3nnnn3C)CS[C@@H]21` (stereo partly drawn) [Example 10] are 50 µg/mL (≈ 79.4 µM), 12.5 µg/mL (≈ 19.9 µM), 12.5 µg/mL (≈ 19.9 µM), 0.39 µg/mL (≈ 0.619 µM) and 12.5 µg/mL (≈ 19.9 µM).
Regarding `CO[C@@]1(NC(=O)C(NC(=O)c2cncnc2O)c2ccccc2)C(=O)N2C(C(=O)O)=C(COC(N)=O)CS[C@@H]21` (stereo partly drawn) [Example 11], the MIC in assay [1] is 100 µg/mL (≈ 179 µM); in assay [2], 12.5 µg/mL (≈ 22.4 µM); in assay [3] it was 50 µg/mL (≈ 89.5 µM); in assay [4], 0.78 µg/mL (≈ 1.4 µM); in assay [5], 12.5 µg/mL (≈ 22.4 µM).
Regarding `CO[C@@]1(NC(=O)C(NC(=O)c2ccnnc2O)c2ccc(O)cc2)C(=O)N2C(C(=O)O)=C(CSc3nnnn3C)CS[C@@H]21` (stereo partly drawn) [Example 12], the MIC in assay [1] was found to be 100 µg/mL (≈ 159 µM); in assay [2] it was 25 µg/mL (≈ 39.7 µM); in assay [3], 25 µg/mL (≈ 39.7 µM); in assay [4], 0.78 µg/mL (≈ 1.24 µM); in assay [5] it was 12.5 µg/mL (≈ 19.9 µM).
For `CO[C@@]1(NC(=O)C(NC(=O)c2ccnnc2O)c2ccc(O)cc2)C(=O)N2C(C(=O)O)=C(CSc3nnc(C)s3)CS[C@@H]21` (stereo partly drawn) [Example 13], the MIC in assay [1] amounted to 100 µg/mL (≈ 155 µM); in assay [2], 25 µg/mL (≈ 38.7 µM); in assay [3] it was 25 µg/mL (≈ 38.7 µM); in assay [4], 0.78 µg/mL (≈ 1.21 µM); in assay [5] it was 12.5 µg/mL (≈ 19.4 µM).
Take `CO[C@@]1(NC(=O)C(NC(=O)c2ccnnc2O)c2ccc(O)cc2)C(=O)N2C(C(=O)O)=C(CSc3n[nH]c(=S)s3)CS[C@@H]21` (stereo partly drawn) [Example 14]: the MIC in assay [1] amounted to 100 µg/mL (≈ 151 µM); in assay [2], 25 µg/mL (≈ 37.7 µM); in assay [3], 25 µg/mL (≈ 37.7 µM); in assay [4] it was 1.56 µg/mL (≈ 2.35 µM); in assay [5], 12.5 µg/mL (≈ 18.8 µM).
On to `CO[C@@]1(NC(=O)C(NC(=O)c2cnc3nc(C)ccc3c2O)c2ccc(O)cc2)C(=O)N2C(C(=O)O)=C(COC(C)=O)CS[C@@H]21` (stereo partly drawn) [Example 15], for which the MIC stood at 100 µg/mL (≈ 157 µM) in assay [1]; 12.5 µg/mL (≈ 19.6 µM) in assay [2]; 50 µg/mL (≈ 78.4 µM) in assay [3]; 1.56 µg/mL (≈ 2.45 µM) in assay [4]; 12.5 µg/mL (≈ 19.6 µM) in assay [5].
On to `CO[C@@]1(NC(=O)C(NC(=O)c2cnccc2O)c2ccccc2)C(=O)N2C(C(=O)[O-])=C(C[n+]3ccccc3)CS[C@@H]21` (stereo partly drawn) [Example 16], for which the MIC came to 50 µg/mL (≈ 86.9 µM) in assay [1]; 6.25 µg/mL (≈ 10.9 µM) in assay [2]; 25 µg/mL (≈ 43.4 µM) in assay [3]; 1.56 µg/mL (≈ 2.71 µM) in assay [4]; 12.5 µg/mL (≈ 21.7 µM) in assay [5].
Taken in the same sequence, the figures for `COc1cnc2c(O)c(C(=O)NC(C(=O)N[C@]3(OC)C(=O)N4C(C(=O)O)=C(CSc5nnnn5C)CS[C@@H]43)c3ccc(O)cc3)cnc2n1` (stereo partly drawn) [Example 17] were 6.25 µg/mL (≈ 8.79 µM), 3.13 µg/mL (≈ 4.4 µM), 6.25 µg/mL (≈ 8.79 µM), 0.2 µg/mL (≈ 0.281 µM) and 3.13 µg/mL (≈ 4.4 µM).
In the same order, the values of `CO[C@@]1(NC(=O)C(NC(=O)c2cnc3nc(SC)ncc3c2O)c2ccc(O)cc2)C(=O)N2C(C(=O)O)=C(COC(N)=O)CS[C@@H]21` (stereo partly drawn) [Example 18] are 50 µg/mL (≈ 74.4 µM), 6.25 µg/mL (≈ 9.31 µM), 12.5 µg/mL (≈ 18.6 µM), 0.78 µg/mL (≈ 1.16 µM) and 12.5 µg/mL (≈ 18.6 µM).
`CO[C@@]1(NC(=O)C(NC(=O)c2cnc3nc(SC)ncc3c2O)c2ccc(O)cc2)C(=O)N2C(C(=O)O)=C(CSc3ccc(O)nn3)CS[C@@H]21` (stereo partly drawn) [Example 19]: the MIC in assay [1] came out at 25 µg/mL (≈ 33.8 µM); in assay [2], 3.13 µg/mL (≈ 4.24 µM); in assay [3], 12.5 µg/mL (≈ 16.9 µM); in assay [4], 0.78 µg/mL (≈ 1.06 µM); in assay [5], 6.25 µg/mL (≈ 8.46 µM).
